Counter-ions that a name gives are not always drawn.

Chain of MetAP-2 (P50579 whole entry, species assumed): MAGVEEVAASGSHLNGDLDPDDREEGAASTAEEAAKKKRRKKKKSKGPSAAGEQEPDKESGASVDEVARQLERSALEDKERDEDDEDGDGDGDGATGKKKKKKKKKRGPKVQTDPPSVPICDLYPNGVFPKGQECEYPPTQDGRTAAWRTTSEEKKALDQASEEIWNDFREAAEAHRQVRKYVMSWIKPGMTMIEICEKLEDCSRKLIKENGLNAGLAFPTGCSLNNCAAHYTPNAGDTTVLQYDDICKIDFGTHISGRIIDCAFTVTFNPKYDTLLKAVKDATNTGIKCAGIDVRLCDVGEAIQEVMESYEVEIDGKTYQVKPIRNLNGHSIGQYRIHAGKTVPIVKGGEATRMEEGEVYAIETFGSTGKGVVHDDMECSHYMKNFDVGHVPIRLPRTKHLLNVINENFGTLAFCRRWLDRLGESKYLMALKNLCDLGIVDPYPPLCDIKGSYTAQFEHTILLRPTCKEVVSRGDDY

The assay concerns the target MetAP-2 (Homo sapiens, UniProt P50579). Description: MetAP-2 activity measurement (coupled enzymatic reactions, substrate Met-Arg-Ser, photometric at 450 nm). The conditions noted are these: read-out: IC50 enzyme (Inhibition of MetAP-2). The format is biochemical. The procedure, abridged:
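Human MetAP-2 cleaves Met-Arg-Ser; the freed methionine is oxidized by L-amino acid oxidase, and the resulting H2O2 drives peroxidase oxidation of dianisidine, read continuously at 450 nm. Activity is taken as the slope in the visually linear region.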
Take `O=C(NCCO)c1cc(OC[C@H]2CCCN2c2ncnc3[nH]cnc23)c2ccccc2n1` [A84, N-(2-Hydroxyethyl)-4-[(R)-1-(9H-purin-6-yl)-pyrrolidin-2-ylmethoxy]quinoline-2-carboxamide]: the IC50 (in general, the concentration needed to halve the response being measured) lay in the range of 0.01 to 1 µM.

As to `O=C(NCCN1CCOCC1)c1cccc(-c2ncc(OC[C@H]3CCCN3c3ncnc4[nH]cnc34)cn2)c1` [A66, N-(2-Morpholin-4-ylethyl)-3-{5-[(R)-1-(9H-purin-6-yl)pyrrolidin-2-ylmethoxy]pyrimidin-2-yl}-benzamide], the IC50 fell in the range of 0.01 to 1 µM.

Regarding `CNC(=O)c1cc(Oc2ccc(CNC(=O)Nc3cc(C(F)(F)F)ccc3OCC3CCCN3c3ncnc4[nH]cnc34)cc2)ccn1` (centres unmarked) [A34, N-Methyl-4-[4-(3-{2-[1-(9H-purin-6-yl)pyrrolidin-2-ylmethoxy]-5-trifluoromethyl-phenyl}ureidomethyl)phenoxy]pyridine-2-carboxamide], the IC50 was more than 10 µM. The figure for `CCNC(=O)c1cc(OC[C@H]2CCCN2c2ncnc3[nH]cnc23)c2ccccc2n1` [A50, N-Ethyl-4-[(R)-1-(9H-purin-6-yl)pyrrolidin-2-yl-methoxy]quinoline-2-carboxamide formate] is 0.01 to 1 µM; for `CCOC(=O)CNC(=O)N1CCN(c2ccc3cccc(OC[C@H]4CCCN4c4ncnc5[nH]cnc45)c3c2)CC1` [A157, Ethyl [(4-{8-[(R)-1-(9H-purin-6-yl)pyrrolidin-2-yl-methoxy]naphthalen-2-yl}piperazine-1-carbonyl)amino]acetate] it is 1 to 10 µM. The figure for `O=C(NCCCN1CCOCC1)c1cc(OC[C@H]2CCCN2c2ncnc3[nH]cnc23)c2ccccc2n1` [A150, N-(3-Morpholin-4-ylpropyl)-4-[(R)-1-(9H-purin-6-yl)pyrrolidin-2-ylmethoxy]quinoline-2-carboxamide] is 0.01 to 1 µM; for `Fc1ccc(CCNCCn2cc(OC[C@H]3CCCN3c3ncnc4[nH]cnc34)c3cc(F)ccc32)cc1` [A203, [2-(4-Fluorophenyl)ethyl]-(2-{5-fluoro-3-[(R)-1-(9H-purin-6-yl)pyrrolidin-2-ylmethoxy]indol-1-yl}-ethyl)amine] it is more than 10 µM. For `Cn1c(C(=O)O)c(OC[C@H]2CCCN2c2ncnc3[nH]cnc23)c2cc(F)ccc21` [A190, 5-Fluoro-1-methyl-3-[(R)-1-(9H-purin-6-yl)-pyrrolidin-2-ylmethoxy]-1H-indole-2-carboxylic acid], the IC50 is more than 10 µM. Next, `CCNC(=O)N1CCN(c2ccc3cccc(OC[C@H]4CCCN4c4ncnc5[nH]cnc45)c3c2)CC1` [A155, N-Ethyl-4-{8-[(R)-1-(9H-purin-6-yl)pyrrolidin-2-yl-methoxy]naphthalen-2-yl}piperazine-1-carboxamide]: 1 to 10 µM; `c1cnc2c(OC[C@H]3CCCN3c3ncnc4[nH]cnc34)cccc2c1` [A43, 8-[(R)-1-(9H-Purin-6-yl)pyrrolidin-2-yl-methoxy]quinoline]: 1 to 10 µM; `c1ccc2c(OC[C@H]3CCCN3c3ncnc4[nH]cnc34)c(CN3CCCCC3)ccc2c1` [A61, 6-[(R)-2-(2-Piperidin-1-ylmethylnaphthalen-1-yloxymethyl)pyrroiidin-1-yl]-9H-purine]: more than 10 µM.

On to `NC(=O)C[C@@H](N)C(=O)Nc1ccc2cccc(OC[C@H]3CCCN3c3ncnc4[nH]cnc34)c2c1` [A177, (R)-2-Amino-N1-{8-[(R)-1-(9H-purin-6-yl)-pyrrolidin-2-ylmethoxy]naphthalen-2-yl}succinamide], for which the IC50 is 1 to 10 µM. Turning to `O=C(O)CC[C@H](NC(=O)O)C(=O)Nc1ccc2cccc(OC[C@H]3CCCN3c3ncnc4[nH]cnc34)c2c1` [A183, (S)-4-Carboxyamino-4-{8-[(R)-1-(9H-purin-6-yl)-pyrrolidin-2-ylmethoxy]naphthalen-2-yl-carbamoyl}butyric acid], the IC50 was more than 10 µM. Next, `c1ccc(-c2nc3ccccc3s2)c(OC[C@H]2CCCN2c2ncnc3[nH]cnc23)c1` [A103, 6-[(R)-2-(2-Benzothiazol-2-ylphenoxymethyl)-pyrrolidin-1-yl]-9H-purine]: 1 to 10 µM; `O=C1c2cccc(OC[C@H]3CCCN3c3ncnc4[nH]cnc34)c2CC[C@H]1Cc1cc[nH]n1` [A130, (S)-5-[(R)-1-(9H-Purin-6-yl)pyrrolidin-2-yl-methoxy]-2-(1H-pyrazol-3-ylmethyl)-3,4-dihydro-2H-naphthalen-1-one]: 0.01 to 1 µM; `CCOC(=O)c1c(OC[C@H]2CCCN2c2ncnc3[nH]cnc23)c2cc(F)ccc2n1C` [A184, Ethyl 5-fIuoro-1-methyl-3-[(R)-1-(9H-purin-6-yl)-pyrrolidin-2-ylmethoxy]-1H-indole-2-carboxylate]: more than 10 µM. Next, `CC(C)(C)OC(=O)N[C@@H](Cc1c[nH]cn1)C(=O)Nc1ccc2cccc(OC[C@H]3CCCN3c3ncnc4[nH]cnc34)c2c1` [A163, tert-Butyl ((S)-2-(1H-imidazol-4-yl)-1-{8-[(R)-1-(9H-purin-6-yl)pyrrolidin-2-ylmethoxy]-naphthalen-2-ylcarbamoyl}ethyl)carbamate]: 1 to 10 µM; `O=C1c2cccc(OC[C@H]3CCCN3c3ncnc4[nH]cnc34)c2CC[C@H]1Cc1c[nH]cn1` [A97, (S)-2-(1H-Imidazol-4-y!methyl)-5-[(R)-1-(9H-purin-6-yl)pyrrolidin-2-ylmethoxy]-3,4-dihydro-2H-naphthalen-1-one]: 0.01 to 1 µM. Turning to `CNC(=O)/C=C/c1ccccc1OC[C@H]1CCCN1c1ncnc2[nH]cnc12` [A78, (E)-N-Methyl-3-{2-[(R)-1-(9H-purin-6-yl)-pyrrolidin-2-ylmethoxy]phenyl}acrylamide], the IC50 lay within 1 to 10 µM. Next, `CNC(=O)/C=C1/CCc2c(OC[C@H]3CCCN3c3ncnc4[nH]cnc34)cccc2C1=O` [A67, N-Methyl-2-[1-oxo-5-[(R)-1-(9H-purin-6-yl)-pyrrolidin-2-ylmethoxy]-3,4-dihydro-1H-naphthalen-(2Z)-ylidene]acetamide]: 0.01 to 1 µM. As to `COC(=O)c1c(OC[C@H]2CCCN2c2ncnc3[nH]cnc23)c2cc(F)ccc2n1C` [A151, Methyl 5-fluoro-1-methyl-3-[(R)-1-(9H-purin-6-yl)pyrrolidin-2-ylmethoxy]-1H-indole-2-carboxylate], the IC50 fell in the range of 0.01 to 1 µM. For the compound `O=C(OCc1ccccc1)N1CCc2cccc(OC[C@H]3CCCN3c3ncnc4[nH]cnc34)c2C1` [A120, Benzyl 8-[(R)-1-(9H-purin-6-yl)pyrrolidin-2-yl-methoxy]-3,4-dihydro-1H-isoquinoline-2-carboxylate], the IC50 lay within 1 to 10 µM. In the case of `c1ccc(-c2ccccc2OC[C@H]2CCCN2c2ncnc3[nH]cnc23)cc1` [A62, 6-[(R)-2-(Biphenyl-2-yloxymethyl)pyrrolidin-1-yl]-9H-purine], the IC50 fell in the range of 1 to 10 µM. On to `NCCOCCOCCNCc1ccc(OC[C@H]2CCCN2c2ncnc3[nH]cnc23)c2ccccc12` [A47, 2-{2-[2-({4-[(R)-1-(9H-Purin-6-yl)pyrrolidin-2-yl-methoxy]naphthalen-1-ylmethyl}-amino)ethoxy]ethoxy}ethylamine], for which the IC50 lay within 1 to 10 µM. Next, `c1cc(OC[C@H]2CCCN2c2ncnc3[nH]cnc23)c2nccn2c1` [A104, 6-[(R)-2-(Imidazo[1,2-a]pyridin-8-yloxymethyl)-pyrrolidin-1-yl]-9H-purine]: 1 to 10 µM; `F[C@@H]1C[C@H](COc2ccccc2Cl)N(c2ncnc3[nH]cnc23)C1` [A27, 6-[(2R,4R)-2-(2-Chlorophenoxymethyl)-4-fluoro-pyrrolidin-1-yl]-9H-purine]: more than 10 µM.

Source of the values: patent US8846694B2, “Pyrrolidone derivatives for use as MetAP-2 inhibitors” (Merck Patent GmbH, priority 2008, dated 2014).
